Reference: patent publication US20110195900A1, “PEPTIDIC PTH RECEPTOR AGONISTS” (FERRING B.V., priority 2008, published 2011)
Non-standard residues stand in square brackets, D forms with d. Residues, ends and D or L forms follow the SMILES beside them. 1Nal = N[C@@H](Cc1cccc2ccccc12)C(=O)O; β3hI = CC[C@H](C)[C@H](N)CC(=O)O; hSer = N[C@@H](CCO)C(=O)O; Nle = CCCC[C@H](N)C(=O)O; β3hA = C[C@H](N)CC(=O)O; βAla = NCCC(=O)O

Columns and labels:
human PTH-2 receptor = biological target: T1, human PTH-2 receptor (Homo sapiens, UniProt P49190); assay: Luciferase-based transcriptional reporter gene assay for selectivity; format: cell-based
T1 construct: expressed in transfected cells
T1 sequence (P49190 25-550): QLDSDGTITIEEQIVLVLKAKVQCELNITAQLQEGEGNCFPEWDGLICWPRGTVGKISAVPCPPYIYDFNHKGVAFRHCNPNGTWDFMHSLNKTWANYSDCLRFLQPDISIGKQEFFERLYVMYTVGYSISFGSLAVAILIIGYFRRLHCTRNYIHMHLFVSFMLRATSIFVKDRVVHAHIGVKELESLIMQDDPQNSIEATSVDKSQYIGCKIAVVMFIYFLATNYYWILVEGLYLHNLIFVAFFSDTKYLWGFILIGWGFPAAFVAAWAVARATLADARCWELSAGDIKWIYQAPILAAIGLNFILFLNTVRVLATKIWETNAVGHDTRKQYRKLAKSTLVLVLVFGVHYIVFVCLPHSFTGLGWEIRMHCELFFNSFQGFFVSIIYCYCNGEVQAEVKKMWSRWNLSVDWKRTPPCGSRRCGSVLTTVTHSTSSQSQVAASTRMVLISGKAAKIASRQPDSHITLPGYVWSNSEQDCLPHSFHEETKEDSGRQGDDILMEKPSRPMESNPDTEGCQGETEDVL
Experimental: Agonist activity of compounds on the human PTH-1 receptor was determined in a reporter gene assay by transiently transfecting HEK-293 cells with plasmids encoding human PTH-1 receptor under control of the SV40 promoter and a luciferase reporter gene under control of cAMP responsive elements (CRE). See Himmler et al, J. Recept. Res. 13 (1993) 79-94, for further guidance on this assay. Transfected cells were exposed to serial dilutions of compounds for 4-5 hours followed by lysis of cells, determination of luciferase activity, and determination of compound efficacies and EC50 values through non-linear regression.
PTH (1-34) was used as an internal control in each experiment and compounds were tested in at least three independent experiments. To determine selectivity, compounds were tested in luciferase-based transcriptional reporter gene assays expressing the human PTH-2 receptor.

human PTH-1 receptor = biological target: T2, human PTH-1 receptor (Homo sapiens, UniProt Q03431); assay: Reporter gene assay (CRE-luciferase) for agonist activity in transiently transfected HEK-293 cells; format: cell-based; conditions: for hPTHR-2/hPTHR-1: Table 3, selectivity for hPTH-1 receptor over hPTH-2 receptor; for hPTHR-2/hPTHR-1 / Selectivity hPTHR-2/hPTHR-1: ratio of EC50 values; for Selectivity hPTHR-2/hPTHR-1: Table 4 comparison data
T2 construct: expressed in transfected cells; host or cells: HEK-293
T2 sequence (Q03431 27-593): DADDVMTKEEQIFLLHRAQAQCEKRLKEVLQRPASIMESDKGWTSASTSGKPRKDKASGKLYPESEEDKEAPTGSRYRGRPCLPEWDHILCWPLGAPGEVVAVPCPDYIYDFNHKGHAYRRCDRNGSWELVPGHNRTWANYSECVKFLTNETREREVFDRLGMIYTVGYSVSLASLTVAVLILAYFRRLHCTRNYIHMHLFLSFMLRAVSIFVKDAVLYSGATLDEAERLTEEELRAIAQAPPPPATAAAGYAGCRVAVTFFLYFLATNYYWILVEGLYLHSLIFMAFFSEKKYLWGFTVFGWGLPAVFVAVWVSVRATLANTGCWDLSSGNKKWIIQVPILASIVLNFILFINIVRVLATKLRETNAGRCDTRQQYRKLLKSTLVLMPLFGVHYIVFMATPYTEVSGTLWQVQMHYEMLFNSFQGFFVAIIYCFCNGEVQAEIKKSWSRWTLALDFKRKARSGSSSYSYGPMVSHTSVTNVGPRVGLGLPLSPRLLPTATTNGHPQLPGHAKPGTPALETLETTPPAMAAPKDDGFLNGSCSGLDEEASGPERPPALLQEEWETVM
How it was run: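 Selectivity came from luciferase transcriptional reporter assays expressing human PTH-2 receptor. PTH-1 agonism used transiently transfected HEK-293 cells carrying SV40-promoter receptor and cAMP-responsive-element luciferase; 4-5 h compound exposure, lysis, luminescence, non-linear-regression EC50/efficacy; ≥3 independent runs, PTH (1-34) control each.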

Row | Structure (SMILES) | EC50 (human PTH-2 receptor) [nM] | hPTHR-2/hPTHR-1 (human PTH-1 receptor) | EC50 (human PTH-1 receptor) [nM] | Selectivity hPTHR-2/hPTHR-1 (human PTH-1 receptor)
1 | CC[C@H](C)[C@H](NC(=O)[C@H](CCC(=O)O)NC(=O)[C@H](CO)NC(=O)[C@@H](NC(=O)[C@@H](N)CO)C(C)C)C(=O)N[C@@H](CCC(N)=O)C(=O)N[C@@H](CC(C)C)C(=O)N[C@@H](CCOC)C(=O)N[C@@H](Cc1c[nH]cn1)C(=O)N[C@@H](CC(N)=O)C(=O)N[C@@H](CC(C)C)C(=O)NCC(=O)N[C@@H](CCCCN)C(=O)N[C@@H](Cc1c[nH]cn1)C(=O)N[C@@H](CC(C)C)C(=O)N[C@@H](CC(N)=O)C(=O)NCCC(=O)N[C@@H](CCOC)C(=O)N[C@@H](CCC(=O)O)C(=O)N[C@@H](CCCNC(=N)N)C(=O)N[C@H](C(=O)N[C@@H](CCC(=O)O)C(=O)N[C@@H](Cc1cccc2ccccc12)C(=O)N[C@@H](CC(C)C)C(=O)N[C@@H](CCCNC(=N)N)C(=O)N[C@@H](CCCCN)C(=O)N[C@@H](CC(C)C)C(=O)N[C@@H](CC(C)C)C(=O)N[C@@H](CCC(N)=O)C(=O)N[C@@H](CC(=O)O)C(=O)N[C@H](C(=O)N[C@@H](Cc1c[nH]cn1)C(=O)N[C@@H](CC(N)=O)C(=O)N[C@@H](Cc1ccccc1)C(N)=O)C(C)C)C(C)C [SEQ ID NO: 17, [hSer(OMe)^8,18, β-Ala^17,1-Nal^23, Leu^27] hPTH(1-34)-NH2] (H-SVSEIQL[hSer](Me)HNLGKHLN[βAla][hSer](Me)ERVE[1Nal]LRKLLQDVHNF-NH2) | > 270 | >300 |  | 
2 | CCCC[C@H](NC(=O)[C@H](CC(C)C)NC(=O)[C@H](CCC(N)=O)NC(=O)[C@@H](NC(=O)[C@H](CCC(=O)O)NC(=O)[C@H](CO)NC(=O)[C@@H](NC(=O)[C@@H](N)CO)C(C)C)[C@@H](C)CC)C(=O)N[C@@H](Cc1c[nH]cn1)C(=O)N[C@@H](CC(N)=O)C(=O)N[C@@H](CC(C)C)C(=O)NCC(=O)N[C@@H](CCCCN)C(=O)N[C@@H](Cc1c[nH]cn1)C(=O)N[C@@H](CC(C)C)C(=O)N[C@@H](CC(N)=O)C(=O)N[C@@H](CO)C(=O)N[C@@H](C)CC(=O)N[C@@H](CCC(=O)O)C(=O)N[C@@H](CCCNC(=N)N)C(=O)N[C@H](C(=O)N[C@@H](CCC(=O)O)C(=O)N[C@@H](Cc1cccc2ccccc12)C(=O)N[C@@H](CC(C)C)C(=O)N[C@@H](CCCNC(=N)N)C(=O)N[C@@H](CCCCN)C(=O)N[C@@H](CC(C)C)C(=O)N[C@@H](CC(C)C)C(=O)N[C@@H](CCC(N)=O)C(=O)N[C@@H](CC(=O)O)C(=O)N[C@H](C(=O)N[C@@H](Cc1c[nH]cn1)C(=O)N[C@@H](CC(N)=O)C(=O)N[C@@H](Cc1ccccc1)C(N)=O)C(C)C)C(C)C [SEQ ID NO: 18, [Nle^8, β-hAla^18,1-Nal^23, Leu^27] hPTH (1-34)-NH2] (H-SVSEIQL[Nle]HNLGKHLNS[β3hA]ERVE[1Nal]LRKLLQDVHNF-NH2) | 61 | 281 | 0.22 | 281
3 | CCCC[C@H](NC(=O)[C@H](CC(C)C)NC(=O)[C@H](CCC(N)=O)NC(=O)[C@@H](NC(=O)[C@H](CCC(=O)O)NC(=O)[C@H](CO)NC(=O)[C@@H](NC(=O)[C@@H](N)CO)C(C)C)[C@@H](C)CC)C(=O)N[C@@H](Cc1c[nH]cn1)C(=O)N[C@@H](CC(N)=O)C(=O)N[C@@H](CC(C)C)C(=O)NCC(=O)N[C@@H](CCCCN)C(=O)N[C@@H](Cc1c[nH]cn1)C(=O)N[C@@H](CC(C)C)C(=O)N[C@@H](CC(N)=O)C(=O)N[C@@H](CO)C(=O)N[C@H](CC(=O)N[C@@H](CCC(=O)O)C(=O)N[C@@H](CCCNC(=N)N)C(=O)N[C@H](C(=O)N[C@@H](CCC(=O)O)C(=O)N[C@@H](Cc1cccc2ccccc12)C(=O)N[C@@H](CC(C)C)C(=O)N[C@@H](CCCNC(=N)N)C(=O)N[C@@H](CCCCN)C(=O)N[C@@H](CC(C)C)C(=O)N[C@@H](CC(C)C)C(=O)N[C@@H](CCC(N)=O)C(=O)N[C@@H](CC(=O)O)C(=O)N[C@H](C(=O)N[C@@H](Cc1c[nH]cn1)C(=O)N[C@@H](CC(N)=O)C(=O)N[C@@H](Cc1ccccc1)C(N)=O)C(C)C)C(C)C)[C@@H](C)CC [SEQ ID NO: 19, [Nle^8, β-hIle^18,1-Nal^23, Leu^27] hPTH (1-34)-NH2] (H-SVSEIQL[Nle]HNLGKHLNS[β3hI]ERVE[1Nal]LRKLLQDVHNF-NH2) | 32 | 224 | 0.14 | 224
4 | CCCC[C@H](NC(=O)[C@H](CC(C)C)NC(=O)[C@H](CCC(N)=O)NC(=O)[C@@H](NC(=O)[C@H](CCC(=O)O)NC(=O)[C@H](CO)NC(=O)[C@@H](NC(=O)[C@@H](N)CO)C(C)C)[C@@H](C)CC)C(=O)N[C@@H](Cc1c[nH]cn1)C(=O)N[C@@H](CO)C(=O)N[C@@H](CC(C)C)C(=O)NCC(=O)N[C@@H](CCCCN)C(=O)N[C@@H](Cc1c[nH]cn1)C(=O)N[C@@H](CC(C)C)C(=O)N[C@@H](CC(N)=O)C(=O)N[C@@H](CO)C(=O)N[C@H](CC(=O)N[C@@H](CCC(=O)O)C(=O)N[C@@H](CCCNC(=N)N)C(=O)N[C@H](C(=O)N[C@@H](CCC(=O)O)C(=O)N[C@@H](Cc1cccc2ccccc12)C(=O)N[C@@H](CC(C)C)C(=O)N[C@@H](CCCNC(=N)N)C(=O)N[C@@H](CCCCN)C(=O)N[C@@H](CC(C)C)C(=O)N[C@@H](CC(C)C)C(=O)N[C@@H](CCC(N)=O)C(=O)N[C@@H](CC(=O)O)C(=O)N[C@H](C(=O)N[C@@H](Cc1c[nH]cn1)C(=O)N[C@@H](CC(N)=O)C(=O)N[C@@H](Cc1ccccc1)C(N)=O)C(C)C)C(C)C)[C@@H](C)CC [SEQ ID NO: 23, [Nle^8, Ser^10, β-hIle^18,1-Nal^23, Leu^27] hPTH (1-34)-NH2] (H-SVSEIQL[Nle]HSLGKHLNS[β3hI]ERVE[1Nal]LRKLLQDVHNF-NH2) | 17 | 95 | 0.18 | 
5 | CCCC[C@H](NC(=O)[C@H](CC(C)C)NC(=O)[C@H](CCC(N)=O)NC(=O)[C@@H](NC(=O)[C@H](CCC(=O)O)NC(=O)[C@H](CO)NC(=O)[C@@H](NC(=O)[C@@H](N)CO)C(C)C)[C@@H](C)CC)C(=O)N[C@@H](Cc1c[nH]cn1)C(=O)N[C@@H](CCC(=O)O)C(=O)N[C@@H](CC(C)C)C(=O)NCC(=O)N[C@@H](CCCCN)C(=O)N[C@@H](Cc1c[nH]cn1)C(=O)N[C@@H](CC(C)C)C(=O)N[C@@H](CC(N)=O)C(=O)N[C@@H](CO)C(=O)N[C@H](CC(=O)N[C@@H](CCC(=O)O)C(=O)N[C@@H](CCCNC(=N)N)C(=O)N[C@H](C(=O)N[C@@H](CCC(=O)O)C(=O)N[C@@H](Cc1cccc2ccccc12)C(=O)N[C@@H](CC(C)C)C(=O)N[C@@H](CCCNC(=N)N)C(=O)N[C@@H](CCCCN)C(=O)N[C@@H](CC(C)C)C(=O)N[C@@H](CC(C)C)C(=O)N[C@@H](CCC(N)=O)C(=O)N[C@@H](CC(=O)O)C(=O)N[C@H](C(=O)N[C@@H](Cc1c[nH]cn1)C(=O)N[C@@H](CC(N)=O)C(=O)N[C@@H](Cc1ccccc1)C(N)=O)C(C)C)C(C)C)[C@@H](C)CC [SEQ ID NO: 24, [Nle^8, Glu^10, β-hIle^18,1-Nal^23, Leu^27] hPTH (1-34)-NH2] (H-SVSEIQL[Nle]HELGKHLNS[β3hI]ERVE[1Nal]LRKLLQDVHNF-NH2) | 3 | 24 | 0.13 | 
6 | CCCC[C@H](NC(=O)[C@H](CC(C)C)NC(=O)[C@H](CCC(N)=O)NC(=O)[C@@H](NC(=O)[C@H](CCC(=O)O)NC(=O)[C@H](CO)NC(=O)[C@@H](NC(=O)[C@@H](N)CO)C(C)C)[C@@H](C)CC)C(=O)N[C@@H](Cc1c[nH]cn1)C(=O)N[C@@H](CC(N)=O)C(=O)N[C@@H](CC(C)C)C(=O)NCC(=O)N[C@@H](CCCCN)C(=O)N[C@@H](Cc1c[nH]cn1)C(=O)N[C@@H](CC(C)C)C(=O)N[C@@H](CC(N)=O)C(=O)N[C@@H](CO)C(=O)N[C@H](CC(=O)N[C@@H](CCC(=O)O)C(=O)N[C@@H](CCCNC(=N)N)C(=O)N[C@H](C(=O)N[C@@H](CCC(=O)O)C(=O)N[C@@H](Cc1cccc2ccccc12)C(=O)N[C@@H](CC(C)C)C(=O)N[C@@H](CCCNC(=N)N)C(=O)N[C@@H](CCCCN)C(=O)N[C@@H](CC(C)C)C(=O)N[C@@H](CC(C)C)C(=O)N[C@@H](CCC(N)=O)C(=O)N[C@@H](Cc1c[nH]cn1)C(=O)N[C@H](C(=O)N[C@@H](Cc1c[nH]cn1)C(=O)N[C@@H](CC(N)=O)C(=O)N[C@@H](Cc1ccccc1)C(N)=O)C(C)C)C(C)C)[C@@H](C)CC [SEQ ID NO: 25, [Nle^8, β-hIle^18,1-Nal^23, Leu^27, His^30] hPTH (1-34)-NH2] (H-SVSEIQL[Nle]HNLGKHLNS[β3hI]ERVE[1Nal]LRKLLQHVHNF-NH2) | 13 | 72 | 0.18 | 
